Tests used:
[1] = test system: E. coli growth in LB media; test: Synergy between DDAC and TTPC by flow cytometry, Example 3; settings: 40 ppm of biocide, ratio DDAC:TTPC
[2] = test system: Cultures of E. coli; test: Viability measured by flow cytometry, Example 6; type: cell-based; settings: Escherichia coli, 4 hours at 37° C., n=3, ± 1 standard deviation, read-out: reduced viable bacteria (flow cytometry)
Method: (§1) Cultures of E. coli were left untreated or treated with tributyltetradecyl phosphonium chloride (TTPC) at 75 ppm, 150 ppm, or 300 ppm. Flow cytometry samples were prepared as described in Example 1 and triplicate culture bottles were prepared of the treated E. coli and untreated E. coli after 4 hours of incubation at 37° C. […] Viability was measured by flow cytometry and serial dilution in LB media. […] Error bars indicate 1 standard deviation. An asterisk indicates a statistically significant difference (p<0.05) and two asterisk indicates a p-value <0.01.

[3] = test system: Cultures of E. coli; test: Viability by standard culture method (serial dilution in LB media), Example 6; type: cell-based; settings: Escherichia coli, 4 hours at 37° C., n=3, ± 1 standard deviation, read-out: reduced viable bacteria (serial dilution culturing)
Method: as §1

[4] = test system: E. coli in LB media; test: Effect of citric acid treatment on flow cytometry viable bacteria, Examples 8-9; type: cell-based, Escherichia coli; settings: concentration less than or equal to 20 mM

`CCCCCCCCCC[N+](C)(C)CCCCCCCCCC.[Cl-]` [10:0, didecyldimethylammonium chloride] was tested, and the “Depolarized and Membrane-damaged/mL” value [1] was 555000 mL⁻¹, the Depolarized/mL [1] was 1.45e+06 mL⁻¹ and the Membrane-damaged/mL [1] was 349 mL⁻¹. The Viable/mL [1] was 5390 mL⁻¹.

`CCCCCCCCCCCCCC[P+](CCCC)(CCCC)CCCC.[Cl-]` [TTPC, tributyl tetradecyl phosphonium chloride] was tested, and the inhibition at 75 ppm ([2]; 75 ppm) was 97.9%, the inhibition at 150 ppm ([2]; 150 ppm) was 99.7% and the inhibition at 300 ppm ([2]; 300 ppm) was 100%. It also gave an inhibition at 75 ppm ([3]; 75 ppm) of 99%, an inhibition at 150 ppm ([3]; 150 ppm) of 100% and an inhibition at 300 ppm ([3]; 300 ppm) of 100%. The “Depolarized and Membrane-damaged/mL” value [1] was 1.67e+06 mL⁻¹, the Depolarized/mL [1] was 2.54e+06 mL⁻¹ and the Membrane-damaged/mL [1] was 537 mL⁻¹. It also gave a Viable/mL [1] of 6330 mL⁻¹.

`O=C(O)CC(O)(CC(=O)O)C(=O)O` [citric acid] was tested, and the “effect on cell viability when analyzed by flow cytometry” value [4] was “does not affect the cell viability”.
